Here are results for two substances from patent US20150299277A1, “AGENT FOR TREATING OR PREVENTING SYSTEMIC INFLAMMATORY RESPONSE SYNDROME” (THE UNIVERSITY OF TOKYO, priority 2012, published 2015).

The target in one assay is T1, histone H2A (Homo sapiens, UniProt Q7L7L0).
T1 construct: purchased NEB
Nature of the assay: ELISA binding assay. The following applies: immobilized recombinant histone. The procedure:
(§1) Recombinant human histone (NEB) was adjusted to a concentration of 1 μg/mL in TBS, added to a 96 well ELISA plate, and immobilized at 4° C. overnight. The solution was discarded, a blocking buffer (TBS, 0.1% Triton-X100, 1% BSA) was added, and the plate was incubated at room temperature for 2 hr. The plate was washed four times with a wash buffer (TBS, 0.1% Triton-X100), recombinant PTX3 diluted to various concentrations with the blocking buffer was added to each well, and reacted at room temperature for 1 hr. After washing four times with the wash buffer, HRP-labeled antibody diluted with the blocking buffer was added, and reacted at room temperature for 1 hr. After washing four times with the wash buffer, TMB solution was added to carry out a color development reaction for 30 min, and the absorbance at 450 nm was measured. Assay was performed using all the buffers containing 4 mM CaCl2 or 4 mM EDTA.
(§2) The binding level between immobilized each recombinant histone and a tagged human PTX3 fragment was measured by binding assay (ELISA). For detection, HRP-labeled anti-His (6×His) antibody was used. ELISA was performed with duplicate wells for each point, and means and standard deviations were calculated from three independent experiments.

A further assay has as its target T2, histone H2B (Homo sapiens, UniProt Q16778).
T2 construct: purchased NEB
The experiment in a line: ELISA binding assay. The conditions noted are these: immobilized recombinant histone. The protocol: as §1, §2

In assay [1] the test system is Calf Thymus Histones. Nature of the assay: Aggregation with histone, absorbance at 310 nm. The following applies: mixture with Calf Thymus Histones. The class given is binding. The protocol: The lower left figure and the lower right figure show the measurement results of absorbance at 310 nm of a mixture of a wild-type or oligomer formation capacity-deficient mutant of PTX3 N-terminal domain having each concentration and 0.1 mg/mL Calf Thymus Histones at 1:1 vol.
The aggregation activity of PTX3 and other pentraxins to histone was evaluated. Calf Thymus Histones (50 μg/mL) were mixed with a PTX3 fragment or the other pentraxin at each concentration, and the absorbance at the wavelength of 310 nm was measured. Before mixing, samples were dialyzed against 4 mM CaCl2-containing TBS.

Assay [2] concerns mice intraperitoneally administered with LPS. Nature of the assay: LPS-administered mouse. The class given is in vivo. The protocol: At 0, 6 and 24 hr from the LPS administration, heparin plasma was collected, and the concentrations of mouse IL-6 and mouse VEGF were measured using ELISA kit (R&D).
The survival rate of the mice intraperitoneally administered with LPS at a concentration of 16 mg/kg is shown. The N-terminal domain of PTX3 (5 mg/kg) or control buffer was intraperitoneally administered 2 hr prior to LPS administration. In addition, the time-course changes in the plasma IL-6 and VEGF levels of the LPS-administrated mice treated with the N-terminal domain of PTX3 were measured by ELISA.

For assay [3], the system named is mouse subjected to cecal ligation and puncture (CLP). The experiment in a line: Cecal ligation and puncture (CLP) mouse. The class given is in vivo. The following applies: 5 mg/kg with gentamicin 5 mg/kg, 4 hr after CLP, versus gentamicin alone. The procedure:
For cecal ligation and puncture (CLP) treatment, male C57BL/6 mouse was anesthetized, laparotomy was performed, and cecum was exposed and ligated. A hole is made with an injection needle at the middle between the ligated site and cecum peripheral site, and the abdomen is closed. Four hours from the CLP treatment, the N-terminal domain of PTX3 (5 mg/kg) and gentamicin (5 mg/kg), or gentamicin (5 mg/kg) alone were(was) administered to the mouse.
Mouse was subjected to cecal ligation and puncture (CLP) treatment and, 4 hr later from the treatment, the N-terminal domain of PTX3 (5 mg/kg) and gentamicin (5 mg/kg), or gentamicin (5 mg/kg) alone were(was) administered to the mouse.

Assay [4] deals with T3, histone H4 (Homo sapiens, UniProt P62805). Nature of the assay: CD spectrum of histone H4-PTX3 complex. The procedure:
The CD spectrum of the histone H4-PTX3 complex was measured. The N-terminal domain of PTX3 (25 μg/mL) and histone H4 (5 μg/mL) were each independently measured, and further, the histone H4-PTX3 mixture was measured (FIG. 6D).

The subject of assay [5] is each recombinant histone on HUVEC. The experiment in a line: Cytotoxic assay: suppression of histone cytotoxicity on HUVEC. The following applies: 1 hr culture, PI staining, FACS. The class given is cell-based, human. The protocol:
Normal human umbilical vein endothelial cells (HUVECs) were cultured in EGM2 medium (Clonetics). The cells after culture were washed with PBS, added with Opti-MEM medium containing an product of incubation of activated protein C (APC), PTX3, C reactive protein (CRP) or Serum amyloid P component (SAP) with histone for 1 hr, and the cells were further cultured for 1 hr. Propidium iodide (PI) was added to the medium after culture at a final concentration of 10 μg/mL, and the cells were stained for 10 min. The cells were washed with PBS, detached and analyzed by flow cytometry.
Using each recombinant histone instead of Calf Thymus Histones, a suppressive effect of full-length PTX3 or the N-terminal domain of PTX3 on histone cytotoxicity was studied in the same manner.

For assay [6], the system named is Calf Thymus Histones. Nature of the assay: Dose-dependent precipitate formation (supernatant after centrifugation). The class given is binding. The conditions noted are these: PTX3 0, 12.5, 25, 50 μg/mL; histones 50 μg/mL. The protocol: (§3) Full-length PTX3 at each concentration (0, 12.5, 25, 50 μg/mL) was mixed with Calf Thymus Histones (50 μg/mL) or histone H4 (50 μg/mL), and the mixture was centrifuged. The obtained supernatant was subjected to immunoblotting using PPZ-1228 or SYPRO Ruby staining.

For assay [7], the target named is T3, histone H4. Described as above. The class given is binding. The conditions noted are these: PTX3 0, 12.5, 25, 50 μg/mL; histone H4 50 μg/mL. The procedure:
as §3

Assay [8] addresses T3, histone H4. The experiment in a line: PTX3-histone aggregation, UV-visible absorption spectrum (310 nm). The class given is binding. Further details: purchased NEB. The following applies: PTX3 at various concentrations mixed with histone H4. The protocol: 0.1 mg/mL human histone H4 was mixed with equal volume of various concentrations of Myc-tagged full-length PTX3, and UV-visible absorption spectrum was measured. A graph of absorbance at 310 nm is shown at the top.
Full-length PTX3 at each concentration was mixed with 50 μg/mL histone H4, and UV-visible absorption spectrum (wavelength 310 nm) was measured.

Where [9] appears, read: LPS-administrated mice, 5 mg/kg, ELISA.

On to “N-terminal domain of PTX3: N-terminal domain human PTX3 (18-178 amino acids, SEQ ID NO: 3), tagged, expressed in CHO cells or Escherichia coli”, for which, in the assay with histone H2A, the “bindability to histone H2A (binding assay)” value is “lower than that of the full-length PTX3”. Moreover, the “bindability to histone H2B (binding assay)” value in the assay with histone H2B is reported as “lower than that of the full-length PTX3”. Further, in the assay on Calf Thymus Histones [1], the “aggregation with Calf Thymus Histones, absorbance at 310 nm” value (shortened to “aggregation with Calf Thymus Histones”) is recorded as “showed an aggregation activity with histone”. For the same substance, the “aggregation with Calf Thymus Histones” value with Calf Thymus Histones [1] (listed as N-terminal domain) is recorded as “an aggregation reaction”. Further, in assay [2] (5 mg/kg intraperitoneally 2 hr prior to LPS 16 mg/kg), the “inflammatory reaction caused by LPS administration (biochemical study of blood)” value was “suppressed”. Also, in assay [2] (5 mg/kg intraperitoneally 2 hr prior to LPS 16 mg/kg, C57BL/6 mice), the “mortality due to LPS administration” value is given as “significantly improved mortality”. In [2] (setting [9]), the “plasma IL-6 level” value is recorded as “suppressed” and the “plasma VEGF level” value is given as “suppressed”. In addition, in assay [3], the “mortality due to the CLP treatment” value is given as “significantly improved”. Further, the “CD spectrum, mixed with histone H4” value in the assay with histone H4 [4] (25 μg/mL with histone H4 5 μg/mL) was “did not afford a spectrum pattern showing a general secondary structure”. Moreover, in the assay with histone H4 [4] (25 μg/mL, measured independently), the “CD spectrum, alone” value was “a spectrum pattern having α-helix in the secondary structure”.
As for “full-length PTX3: full-length human pentraxin 3 (1-381 amino acids, SEQ ID NO: 2), used tag-free or Myc- and His-tagged”, the “aggregation with Calf Thymus Histones” value in the assay with Calf Thymus Histones [1] is recorded as “showed an aggregation activity with histone”. In addition, the “suppression of toxic activity of each recombinant histone on HUVEC” value in [5] is recorded as “suppressed”. The “precipitate formation with Calf Thymus Histones” value with Calf Thymus Histones [6] is on record as “precipitated as an insoluble product”. Moreover, the “precipitate formation with histone H4” value in the assay with histone H4 [7] is “precipitated as an insoluble product”. The “aggregation with histone H4, UV-visible absorption spectrum” value with histone H4 [8] was “dose-dependent spectrum”.
